According to ChEMBL document CHEMBL4732246, “Design, synthesis, and evaluation of a novel prodrug, a S-trityl--cysteine derivative targeting kinesin spindle protein” (Eur J Med Chem, 2021):

Key:
[1] = molecular target: T1, Kinesin-like protein KIF11 (Homo sapiens, UniProt P52732); assay: Inhibition C-terminal His-tagged KSP motor domain(1 to 369 residues) (unknown origin) expressed in bacteria assessed as inhibition of microtubule-stimulated ATPase activity preincubated for 30 mins followed by addition of ATP and measured after 15 mins by luciferase-derived luminiscence assay
T1 sequence (P52732 whole entry): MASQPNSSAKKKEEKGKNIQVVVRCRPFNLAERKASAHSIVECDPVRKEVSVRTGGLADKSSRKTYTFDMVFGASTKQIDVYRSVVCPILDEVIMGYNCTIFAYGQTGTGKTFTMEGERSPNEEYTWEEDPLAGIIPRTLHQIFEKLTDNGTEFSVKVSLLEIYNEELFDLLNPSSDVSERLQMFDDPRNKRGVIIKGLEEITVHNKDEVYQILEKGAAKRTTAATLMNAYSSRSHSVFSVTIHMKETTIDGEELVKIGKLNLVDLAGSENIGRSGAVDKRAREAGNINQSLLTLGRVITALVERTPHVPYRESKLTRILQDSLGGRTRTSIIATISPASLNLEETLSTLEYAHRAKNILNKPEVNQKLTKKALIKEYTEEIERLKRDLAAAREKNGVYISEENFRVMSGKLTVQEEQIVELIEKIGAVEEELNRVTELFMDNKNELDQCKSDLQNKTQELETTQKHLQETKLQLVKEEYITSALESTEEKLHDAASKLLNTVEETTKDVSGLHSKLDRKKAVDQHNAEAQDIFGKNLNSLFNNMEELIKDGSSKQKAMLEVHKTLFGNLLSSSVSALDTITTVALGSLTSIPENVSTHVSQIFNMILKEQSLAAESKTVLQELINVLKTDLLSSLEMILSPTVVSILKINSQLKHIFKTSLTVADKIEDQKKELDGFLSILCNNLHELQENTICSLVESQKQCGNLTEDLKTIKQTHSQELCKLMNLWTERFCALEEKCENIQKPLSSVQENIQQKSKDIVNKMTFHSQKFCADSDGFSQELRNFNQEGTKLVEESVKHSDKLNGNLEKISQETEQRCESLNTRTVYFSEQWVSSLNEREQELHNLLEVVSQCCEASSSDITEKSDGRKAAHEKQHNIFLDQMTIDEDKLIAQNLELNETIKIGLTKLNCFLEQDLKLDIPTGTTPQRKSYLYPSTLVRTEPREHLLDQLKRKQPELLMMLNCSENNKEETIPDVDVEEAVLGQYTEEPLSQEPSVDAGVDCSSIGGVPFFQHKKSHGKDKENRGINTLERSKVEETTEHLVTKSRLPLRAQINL

HCT-116 = assay: Cytotoxicity against human HCT-116 cells assessed as cell growth inhibition measured after 72 hrs by MTS assay; format: functional
A549 = assay: Cytotoxicity against human A549 cells overexpressing GGT assessed as cell growth inhibition measured after 72 hrs by MTS assay; format: functional
NCI-H460 = assay: Cytotoxicity against human NCI-H460 cells expressing low GGT assessed as cell growth inhibition measured after 72 hrs by MTS assay; format: functional

| IC50 [1] [nM] | Structure (SMILES) | GI50 (HCT-116) [nM] | GI50 (A549) [nM] | GI50 (NCI-H460) [nM] |
| --- | --- | --- | --- | --- |
| 80 | N[C@@H](CSC1(c2ccc(C(F)(F)F)cc2)c2ccccc2CCc2ccccc21)C(=O)NCCO | 60 | – | – |
| 146 | N[C@@H](CSC1(c2ccc(C(F)(F)F)cc2)c2ccccc2CCc2ccccc21)C(=O)NCCN1CCCCC1 | 191 | – | – |
| 56 | CN(C)CCNC(=O)[C@@H](N)CSC1(c2ccc(C(F)(F)F)cc2)c2ccccc2CCc2ccccc21 | 115 | – | – |

Further lines, the compound ahead of its results:

| Structure (SMILES) | IC50 [1] [nM] | GI50 (HCT-116) [nM] | GI50 (A549) [nM] | GI50 (NCI-H460) [nM] |
| --- | --- | --- | --- | --- |
| N[C@@H](CSC1(c2ccc(C(F)(F)F)cc2)c2ccccc2CCc2ccccc21)C(=O)NCc1ccccc1 | 358 | 282 | – | – |
| N[C@@H](CSC1(c2ccc(C(F)(F)F)cc2)c2ccccc2CCc2ccccc21)C(=O)O | – | 33 | 33 | 15 |
| CC(C)(C)OC(=O)N[C@@H](CSC1(c2ccc(C(F)(F)F)cc2)c2ccccc2CCc2ccccc21)C(=O)O | – | > 1000 | – | – |
| CC(=O)N[C@@H](CSC1(c2ccc(C(F)(F)F)cc2)c2ccccc2CCc2ccccc21)C(=O)O | – | > 1000 | – | – |
| NCCOCCOCCNC(=O)C(N)CSC1(c2ccc(C(F)(F)F)cc2)c2ccccc2CCc2ccccc21 (stereo not given) | 42 | 63 | – | – |
